Results: patent publication US10544143B2, “4-azaindole compounds” (BRISTOL-MYERS SQUIBB COMPANY, priority 2017, dated 2020)

How the values were obtained:
[1] = target: human TLR7 (Homo sapiens (Human), UniProt Q9NYK1); assay: TLR7 inhibition reporter assay (HEK-Blue SEAP); type: cell-based; details: HEK-Blue cells overexpressing human TLR7, gardiquimod 7.5 μM stimulation, SEAP reporter
[2] = target: human TLR8 (Homo sapiens (Human), UniProt Q9NR97); assay: TLR8 inhibition reporter assay (HEK-Blue SEAP); details: read-out: TLR8 IC50; HEK-Blue cells overexpressing human TLR8, R848 15.9 μM stimulation, SEAP reporter;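 also: SEAP driven by IFN-β minimal promoter carrying NF-κB and AP-1 sites, compounds dosed 0.05 nM to 50 µM for 22 h, inhibition scaled between agonist-plus-DMSO and reference-inhibitor wells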
Sequence of human TLR8 (Q9NR97 27-1041): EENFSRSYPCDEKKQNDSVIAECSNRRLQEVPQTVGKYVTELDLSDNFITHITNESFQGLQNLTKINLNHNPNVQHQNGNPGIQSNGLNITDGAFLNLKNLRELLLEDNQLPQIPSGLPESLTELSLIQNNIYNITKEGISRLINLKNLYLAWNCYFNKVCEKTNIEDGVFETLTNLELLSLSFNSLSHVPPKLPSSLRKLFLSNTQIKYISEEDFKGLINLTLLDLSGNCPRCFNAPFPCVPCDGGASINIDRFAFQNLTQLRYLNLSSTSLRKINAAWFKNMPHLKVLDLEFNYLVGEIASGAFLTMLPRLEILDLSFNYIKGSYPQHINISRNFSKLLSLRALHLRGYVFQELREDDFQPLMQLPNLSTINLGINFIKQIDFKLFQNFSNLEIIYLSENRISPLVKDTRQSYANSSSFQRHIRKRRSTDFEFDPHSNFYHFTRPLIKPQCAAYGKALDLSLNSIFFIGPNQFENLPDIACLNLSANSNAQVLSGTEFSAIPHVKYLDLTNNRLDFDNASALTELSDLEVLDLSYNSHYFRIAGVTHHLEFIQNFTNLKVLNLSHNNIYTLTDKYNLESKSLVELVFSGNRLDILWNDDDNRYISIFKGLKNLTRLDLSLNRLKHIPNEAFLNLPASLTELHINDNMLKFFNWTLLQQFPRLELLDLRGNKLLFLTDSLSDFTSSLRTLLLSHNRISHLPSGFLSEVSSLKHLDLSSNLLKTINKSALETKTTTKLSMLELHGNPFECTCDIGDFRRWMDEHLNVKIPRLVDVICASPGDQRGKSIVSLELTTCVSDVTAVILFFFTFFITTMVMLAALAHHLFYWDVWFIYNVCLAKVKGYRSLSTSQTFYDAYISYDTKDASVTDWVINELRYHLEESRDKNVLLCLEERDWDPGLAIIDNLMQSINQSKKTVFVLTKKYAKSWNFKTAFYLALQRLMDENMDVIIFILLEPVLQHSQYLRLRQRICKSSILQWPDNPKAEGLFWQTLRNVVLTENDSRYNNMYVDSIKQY

[3] = target: human TLR9 (Homo sapiens (Human), UniProt Q9NR96); assay: TLR9 inhibition reporter assay (HEK-Blue SEAP); details: read-out: TLR9 IC50; HEK-Blue cells overexpressing human TLR9, ODN2006 5 nM stimulation, SEAP reporter;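 also: SEAP driven by an IFN-β minimal promoter with NF-κB and AP-1 sites, read after 22 h, compounds dosed 0.05 nM–50 µM, inhibition scaled between agonist plus DMSO and reference-inhibitor wells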
Sequence of human TLR9 (Q9NR96 26-1032): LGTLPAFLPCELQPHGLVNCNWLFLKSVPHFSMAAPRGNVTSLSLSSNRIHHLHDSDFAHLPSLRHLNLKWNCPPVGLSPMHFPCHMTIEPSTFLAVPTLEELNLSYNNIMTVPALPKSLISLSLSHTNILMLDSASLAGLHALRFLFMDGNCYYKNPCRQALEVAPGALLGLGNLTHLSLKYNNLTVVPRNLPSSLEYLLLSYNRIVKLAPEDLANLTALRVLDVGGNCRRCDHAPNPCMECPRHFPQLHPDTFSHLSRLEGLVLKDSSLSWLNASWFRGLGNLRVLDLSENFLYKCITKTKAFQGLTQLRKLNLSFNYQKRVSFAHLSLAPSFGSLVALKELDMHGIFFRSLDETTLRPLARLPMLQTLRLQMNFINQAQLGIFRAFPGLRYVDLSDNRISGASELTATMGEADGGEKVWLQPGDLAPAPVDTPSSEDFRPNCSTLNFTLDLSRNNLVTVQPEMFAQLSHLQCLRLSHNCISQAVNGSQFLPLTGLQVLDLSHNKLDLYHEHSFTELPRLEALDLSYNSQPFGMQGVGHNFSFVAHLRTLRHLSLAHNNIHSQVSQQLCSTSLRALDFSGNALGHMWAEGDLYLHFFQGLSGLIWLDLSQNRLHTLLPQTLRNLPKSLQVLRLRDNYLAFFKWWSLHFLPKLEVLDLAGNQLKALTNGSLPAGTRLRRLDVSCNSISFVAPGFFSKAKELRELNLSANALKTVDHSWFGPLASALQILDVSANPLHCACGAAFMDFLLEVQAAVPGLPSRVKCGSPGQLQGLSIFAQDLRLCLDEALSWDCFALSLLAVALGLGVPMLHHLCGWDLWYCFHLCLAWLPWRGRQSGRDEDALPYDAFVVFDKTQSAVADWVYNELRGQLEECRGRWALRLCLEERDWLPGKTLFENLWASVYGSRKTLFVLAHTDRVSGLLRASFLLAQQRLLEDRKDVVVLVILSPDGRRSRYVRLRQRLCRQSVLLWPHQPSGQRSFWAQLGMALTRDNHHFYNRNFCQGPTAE

Sequence of human TLR7 (Q9NYK1 27-1049): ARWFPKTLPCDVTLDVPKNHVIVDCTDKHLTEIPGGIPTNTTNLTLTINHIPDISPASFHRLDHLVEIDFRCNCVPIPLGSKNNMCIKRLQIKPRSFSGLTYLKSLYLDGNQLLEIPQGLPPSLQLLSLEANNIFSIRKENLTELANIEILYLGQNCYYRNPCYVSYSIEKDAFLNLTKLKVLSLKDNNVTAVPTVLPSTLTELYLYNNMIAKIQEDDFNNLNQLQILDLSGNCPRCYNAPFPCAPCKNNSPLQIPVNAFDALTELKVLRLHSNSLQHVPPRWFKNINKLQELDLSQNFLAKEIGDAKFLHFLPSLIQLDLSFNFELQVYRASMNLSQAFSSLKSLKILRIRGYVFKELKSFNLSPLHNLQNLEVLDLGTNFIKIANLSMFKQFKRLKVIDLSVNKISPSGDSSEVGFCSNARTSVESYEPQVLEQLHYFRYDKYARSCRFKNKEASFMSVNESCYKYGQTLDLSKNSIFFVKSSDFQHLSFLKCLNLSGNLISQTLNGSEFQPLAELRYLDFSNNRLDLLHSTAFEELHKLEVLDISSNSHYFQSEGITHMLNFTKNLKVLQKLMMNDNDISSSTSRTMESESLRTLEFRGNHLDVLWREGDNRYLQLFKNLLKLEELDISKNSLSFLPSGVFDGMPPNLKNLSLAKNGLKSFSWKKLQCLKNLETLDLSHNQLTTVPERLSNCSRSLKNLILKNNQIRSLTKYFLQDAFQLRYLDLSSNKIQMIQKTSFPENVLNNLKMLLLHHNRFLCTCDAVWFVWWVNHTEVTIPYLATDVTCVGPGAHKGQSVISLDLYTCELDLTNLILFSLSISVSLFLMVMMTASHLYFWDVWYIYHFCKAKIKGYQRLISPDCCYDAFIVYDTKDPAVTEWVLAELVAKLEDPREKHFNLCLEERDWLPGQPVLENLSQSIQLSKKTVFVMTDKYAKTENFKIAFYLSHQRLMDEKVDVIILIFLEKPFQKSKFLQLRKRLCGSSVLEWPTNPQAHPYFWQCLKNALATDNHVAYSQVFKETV

IC50 [1]	IC50 [2]	IC50 [3]	Compound
3.5 nM	11 nM	967 nM	CCn1cc(-c2[nH]c3ccc(C4CCC(NC5CCOCC5)CC4)nc3c2C(C)C)c2cccnc21 (stereo not drawn) [Example 289]
2.1 nM	6.3 nM	425 nM	CCn1cc(-c2[nH]c3ccc(C4CCC(N5CC6(COC6)C5)CC4)nc3c2C(C)C)c2cccnc21 (stereo not drawn) [Example 290]
2.6 nM	11 nM	735 nM	CCn1cc(-c2[nH]c3ccc(C4CCC(NCC(=O)N(C)C)CC4)nc3c2C(C)C)c2cccnc21 (stereo not drawn) [Example 291]
99 nM	127 nM	1620 nM	CCn1cc(-c2[nH]c3ccc(C4CCC(NC5CCOCC5)CC4)nc3c2C(C)C)c2cccnc21 (stereo not drawn) [Example 292]
75 nM	208 nM	5640 nM	CCn1cc(-c2[nH]c3ccc(C4CCC(O)CC4)nc3c2C(C)C)c2cccnc21 (stereo not drawn) [Example 293]
85 nM	174 nM	2270 nM	CCn1cc(-c2[nH]c3ccc(C4CCC(N5CC6(COC6)C5)CC4)nc3c2C(C)C)c2cccnc21 (stereo not drawn) [Example 294]
11 nM	11 nM	883 nM	CNC1CCC(c2ccc3[nH]c(-c4cn(CCO)c5ncccc45)c(C(C)C)c3n2)CC1 (stereo not drawn) [Example 295]
0.59 nM	6.8 nM	600 nM	CNC1CCC(c2ccc3[nH]c(-c4cn(C)c5ncncc45)c(C(C)C)c3n2)CC1 (stereo not drawn) [Example 296]
8.4 nM	15 nM	885 nM	CNC1CCC(c2ccc3[nH]c(-c4cn(C)c5nccnc45)c(C(C)C)c3n2)CC1 (stereo not drawn) [Example 297]
10 nM	6 nM	680 nM	CNC1CCC(c2ccc3[nH]c(-c4cn(CCO)c5ncccc45)c(C(C)C)c3n2)CC1 (stereo not drawn) [Example 299]
48 nM	286 nM	9050 nM	CNC1CCC(c2ccc3[nH]c(-c4cn(C)c5nccnc45)c(C(C)C)c3n2)CC1 (stereo not drawn) [Example 300]
2 nM	42 nM	4090 nM	CNC1CCC(c2ccc3[nH]c(-c4cn(C)c5ncncc45)c(C(C)C)c3n2)CC1 (stereo not drawn) [Example 301]
0.74 nM	4.9 nM	739 nM	CNC1CCC(c2ccc3[nH]c(-c4cn(C)c5ncccc45)c(C(C)C)c3n2)CC1 (stereo not drawn) [Example 302]
0.55 nM	6.9 nM	1230 nM	CC(C)c1c(-c2cn(C)c3ncncc23)[nH]c2ccc(C3CCC(NCC(=O)N(C)C)CC3)nc12 (stereo not drawn) [Example 303]
0.53 nM	1.8 nM	1070 nM	CC(C)c1c(-c2cn(C)c3ncncc23)[nH]c2ccc(C3CCC(NCCS(C)(=O)=O)CC3)nc12 (stereo not drawn) [Example 304]
4 nM	16 nM	8240 nM	CC(C)c1c(-c2cn(C)c3ncncc23)[nH]c2ccc(C3CCC(NC4CCOCC4)CC3)nc12 (stereo not drawn) [Example 305]
13 nM	61 nM	10100 nM	CC(C)c1c(-c2cc(CO)c3ncnn3c2)[nH]c2ccc(C3CCC(N(C)Cc4ccc(F)cc4)CC3)nc12 (stereo not drawn) [Example 306]
0.86 nM	2.7 nM	2980 nM	CC(C)c1c(-c2cc(CO)c3ncnn3c2)[nH]c2ccc(C3CCC(NCCC(F)(F)F)CC3)nc12 (stereo not drawn) [Example 307]
11 nM	11 nM	3960 nM	CC(C)c1c(-c2cc(CO)c3ncnn3c2)[nH]c2ccc(C3CCC(NCCC(F)(F)F)CC3)nc12 (stereo not drawn) [Example 308]
0.39 nM	4.1 nM	1780 nM	COc1cc(-c2[nH]c3cc(C)c(C4CCC(NC5(C)COC5)CC4)nc3c2C(C)C)cn2ncnc12 (stereo not drawn) [Example 310]
2.8 nM	44 nM	2020 nM	COc1cc(-c2[nH]c3cc(C)c(C4CCC(NC5(C)COC5)CC4)nc3c2C(C)C)cn2ncnc12 (stereo not drawn) [Example 311]
0.26 nM	1.6 nM	577 nM	COc1cc(-c2[nH]c3cc(C)c(C4CCC(NCC5(C)COC5)CC4)nc3c2C(C)C)cn2ncnc12 (stereo not drawn) [Example 312]
0.21 nM	7 nM	1200 nM	CCN(C)C1CCC(c2nc3c(C(C)C)c(-c4cc(OC)c5ncnn5c4)[nH]c3cc2C)CC1 (stereo not drawn) [Example 313]
2.4 nM	47 nM	5510 nM	COc1cc(-c2[nH]c3cc(C)c(C4CCC(NCC(C)(C)O)CC4)nc3c2C(C)C)cn2ncnc12 (stereo not drawn) [Example 314]

IC50 [1]	IC50 [2]	IC50 [3]	Compound
1.8 nM	29 nM	5220 nM	COc1cc(-c2[nH]c3cc(C)c(C4CCC(NCC5(C)COC5)CC4)nc3c2C(C)C)cn2ncnc12 (stereo not drawn) [Example 315]
4.8 nM	94 nM	3610 nM	COc1cc(-c2[nH]c3cc(C)c(C4CCC(N5CC6(COC6)C5)CC4)nc3c2C(C)C)cn2ncnc12 (stereo not drawn) [Example 317]
0.17 nM	2.1 nM	1060 nM	COc1cc(-c2[nH]c3cc(C)c(C4CCC(N)CC4)nc3c2C(C)C)cn2ncnc12 (stereo not drawn) [Example 318]
0.44 nM	4.1 nM	1690 nM	COc1cc(-c2[nH]c3cc(C)c(C4CCC(N5CC6(COC6)C5)CC4)nc3c2C(C)C)cn2ncnc12 (stereo not drawn) [Example 319]
1 nM	22 nM	1480 nM	CCN(C)C1CCC(c2nc3c(C(C)C)c(-c4cc(OC)c5ncnn5c4)[nH]c3cc2C)CC1 (stereo not drawn) [Example 320]
1.7 nM	19 nM	7410 nM	COc1cc(-c2[nH]c3cc(C)c(C4CCC(NCC(F)F)CC4)nc3c2C(C)C)cn2ncnc12 (stereo not drawn) [Example 322]
1.1 nM	31 nM	1360 nM	COc1cc(-c2[nH]c3cc(C)c(C4CCC(N)CC4)nc3c2C(C)C)cn2ncnc12 (stereo not drawn) [Example 323]
6.6 nM	240 nM	20500 nM	COc1cc(-c2[nH]c3cc(C)c(C4CCC(NCC(F)F)CC4)nc3c2C(C)C)cn2ncnc12 (stereo not drawn) [Example 324]
1.5 nM	38 nM	3110 nM	COc1cc(-c2[nH]c3cc(C)c(C4CCC(N5CCC5)CC4)nc3c2C(C)C)cn2ncnc12 (stereo not drawn) [Example 325]
0.13 nM	3.7 nM	988 nM	COc1cc(-c2[nH]c3cc(C)c(C4CCC(N5CCC5)CC4)nc3c2C(C)C)cn2ncnc12 (stereo not drawn) [Example 326]
> 3120 nM	> 3120 nM	> 50000 nM	COCCNC1CCC(c2nc3c(C(C)C)c(-c4cc(OC)c5ncnn5c4)[nH]c3cc2C)CC1 (stereo not drawn) [Example 327]
0.08 nM	1.1 nM	576 nM	COc1cc(-c2[nH]c3cc(C)c(C4CCC(NC5CCOC5)CC4)nc3c2C(C)C)cn2ncnc12 (stereo not drawn) [Example 328]
1.6 nM	23 nM	2070 nM	COc1cc(-c2[nH]c3cc(C)c(C4CCC(NC5CCOC5)CC4)nc3c2C(C)C)cn2ncnc12 (stereo not drawn) [Example 329]
1.3 nM	88 nM	2660 nM	COc1cc(-c2[nH]c3cc(C)c(C4CCC(N(C)Cc5ncn(C)n5)CC4)nc3c2C(C)C)cn2ncnc12 (stereo not drawn) [Example 332]
0.6 nM	12 nM	1460 nM	COc1cc(-c2[nH]c3cc(C)c(C4CCC(N(C)Cc5ncn(C)n5)CC4)nc3c2C(C)C)cn2ncnc12 (stereo not drawn) [Example 333]
4.6 nM	127 nM	2400 nM	COc1cc(-c2[nH]c3cc(C)c(C4CCC(N(C)CC(C)(C)C)CC4)nc3c2C(C)C)cn2ncnc12 (stereo not drawn) [Example 334]
2.8 nM	48 nM	3440 nM	COc1cc(-c2[nH]c3cc(C)c(C4CCC(N(C)CC(C)(C)C)CC4)nc3c2C(C)C)cn2ncnc12 (stereo not drawn) [Example 336]
21 nM	350 nM	> 50000 nM	COc1cc(-c2[nH]c3cc(C)c(C4CCC(N5CC(F)(F)C5)CC4)nc3c2C(C)C)cn2ncnc12 (stereo not drawn) [Example 337]
81 nM	1170 nM	> 50000 nM	COc1cc(-c2[nH]c3cc(C)c(C4CCC(N5CC(F)(F)C5)CC4)nc3c2C(C)C)cn2ncnc12 (stereo not drawn) [Example 338]
0.2 nM	7.1 nM	5890 nM	COc1cc(-c2[nH]c3cc(C)c(C4CCC(N(C)CCC#N)CC4)nc3c2C(C)C)cn2ncnc12 (stereo not drawn) [Example 339]
1.4 nM	51 nM	1870 nM	COc1cc(-c2[nH]c3cc(C)c(C4CCC(N(C)CCC#N)CC4)nc3c2C(C)C)cn2ncnc12 (stereo not drawn) [Example 340]
0.12 nM	0.32 nM	2640 nM	COc1cc(-c2[nH]c3cc(F)c(C4CCC(NCC5(C)COC5)CC4)nc3c2C(C)C)cn2ncnc12 (stereo not drawn) [Example 341]
0.98 nM	3.9 nM	1910 nM	COc1cc(-c2[nH]c3cc(F)c(C4CCC(NCC5(C)COC5)CC4)nc3c2C(C)C)cn2ncnc12 (stereo not drawn) [Example 342]
0.19 nM	0.54 nM	1250 nM	COc1cc(-c2[nH]c3cc(F)c(C4CCC(N5CC6(COC6)C5)CC4)nc3c2C(C)C)cn2ncnc12 (stereo not drawn) [Example 343]

Compound	IC50 [1]	IC50 [2]	IC50 [3]
COc1cc(-c2[nH]c3cc(C)c(C4CCC(NC5COC5)CC4)nc3c2C(C)C)cn2ncnc12 (stereo not drawn) [Example 309]	0.31 nM	4.6 nM	268 nM
COc1cc(-c2[nH]c3cc(C)c(C4CCC(NC5COC5)CC4)nc3c2C(C)C)cn2ncnc12 (stereo not drawn) [Example 316]	1.4 nM	41 nM	3020 nM
COc1cc(-c2[nH]c3cc(C)c(C4CCC(N(C)C5COC5)CC4)nc3c2C(C)C)cn2ncnc12 (stereo not drawn) [Example 330]	0.14 nM	4.8 nM	2970 nM
COc1cc(-c2[nH]c3cc(C)c(C4CCC(N(C)C5COC5)CC4)nc3c2C(C)C)cn2ncnc12 (stereo not drawn) [Example 331]	1.7 nM	34 nM	1910 nM
